Source: patent publication CN105732584A, “一种达比加群酯2-酮戊二酸盐晶型i及其制备方法和用途” (Tianjin Institute of Pharmaceutical Research Co Ltd, priority 2014, dated 2016)
Converted amounts (≈) assume the structure as drawn.

Columns and labels:
Format in all cases: physicochemical
[1] = Stability test (stress factors): content determination by HPLC
[2] = Stability test (stress factors): change of appearance
[3] = Solubility in water at 25℃; conditions: H2O
[4] = 7 days, high temperature and high humidity
[5] = high temperature and high humidity

change of content with time (in words) ([1]; sealed high temperature, and high temperature with high humidity)	SMILES	content remaining [1, 4]	stability (in words) [1, 5]	remaining at 168 h ([1]; high temperature and humidity storage, 7 days, high temperature and high humidity)	change of colour/appearance (in words) [2, 5]	moisture absorption (in words) ([2]; high temperature and high humidity, concluded from colour change and caking)	change of colour/appearance (in words) ([2]; sealed, high temperature)	solubility [3]
	CCCCCCOC(=O)NC(=N)c1ccc(NCc2nc3cc(C(=O)N(CCC(=O)OCC)c4ccccn4)ccc3n2C)cc1 [达比加群酯甲磺酸盐]	< 20%	极不稳定	< 20%	颜色变化很明显且出现板结现象	吸潮严重	颜色随时间产生明显变化	1800 µg/mL (≈ 2870 µM)
含量随时间变化较小	CCCCCCOC(=O)N=C(N)c1ccc(NCc2nc3cc(C(=O)N(CCC(=O)OCC)c4ccccn4)ccc3n2C)cc1.O=C(O)CCC(=O)C(=O)O [达比加群酯2-酮戊二酸盐晶型I, 3-[[[2-[[[4-[[[(己氧基)羰基]氨基]亚氨甲基]苯基]氨基]甲基]-1-甲基-1H-苯并咪唑-5-基]羰基](吡啶-2-基)氨基]丙酸乙酯2-酮戊二酸盐]	~98%			颜色虽有变化但不大		颜色几乎无变化	
